According to patent publication US20150366836A1, “METHOD AND PHARMACEUTICAL COMPOSITION FOR TREATING COLORECTAL CANCER” (National Dong Hua University, priority 2014, published 2015):

What was measured:
Caco2 cells [1] = test: MTT assay cell viability, Caco2 cells; type: cell-based
Experimental: (§1) Two cell lines were used in this study, Caco2 cells and HT-29 cells. Both of them are colorectal cancer cells. Caco2 cells and HT-29 cells were maintained in DMEM (or RPMI) supplemented with 20% or 10% fetal bovine serum (FBS; GIBCO), pH 7.4 at 37° C. with continuous circulation of 5% CO2 incubator. The medium was changed every 2 days and the cells were trypsinized using trypsin/EDTA when reaching 80%-90% confluence.
(§2) In this example, the effects of HCD, PG, and 5-FU on the viability of Caco2 cells and HT-29 cells were examined. The MTT assay was employed for this purpose. The MTT (3-(4-,5-dimethylthiazol-2-yl)-2,5-diphenyltetrazolium bromide) assay is a common colorimetric method in the field for cell viability analysis. MTT (yellow tetrazolium salt) is reduced to a purple formazan by living cells and detection to the purple formazan can be calculated as the cell viability.
(§3) Briefly, cells (Caco2 or HT-29) were seeded in 96-well plate (7×10^3 cell per well) and incubated overnight (37° C., 5% CO2).
(§4) On the other hand, in the pretreatment analysis, cells (Caco2 or HT-29) were seeded in 96-well plate (7×10^3 cell per well) and incubated overnight (37° C., 5% CO2). In according to the treatments listed in the Table 1, Cells were pre-treated by HCD or PG for 6, 12, 24, 36, or 48 hr and then were treated by 5-FU for additional 24 hr.

HT-29 cells [2] = test: MTT assay cell viability, HT-29 cells; type: cell-based
Experimental: as §1, §2, §3, §4

Caco2 cells [3] = test: Cell cycle analysis by flow cytometer (PI staining), Caco2 cells; type: cell-based
Experimental: (§5) The results of Example 2 in cell viability hinted the effects of HCD, PG, and 5-FU on arresting cell cycle. In this example, the phase of cell cycle of Caco2 and HT-29 cells after the treatment listed in Table 1 was determined by flow cytometer. Briefly, 7×10^4 cells per well were inoculated in 12-wells plate and incubated overnight at 37° C., 5% CO2. Then, cells were treated according to the treatment listed in Table 1 by indicated time period. After treatment, cells were harvested by trypsin and fixed with 70% ethanol at −20° C. for at least 3 hr. The cells were washed in cold PBS twice and then incubated with 1 mL (v/v) staining solution (20 μg/mL propidium iodide (PI), 0.1% Triton X-100, 0.2 mg/mL Rnase) at 37° C. for 30 minutes. Lastly, cells were analyzed by flow cytometer (Cytomics™ FC500, Backman, Fullerton, Calif., USA). Data from 10,000 cells were collected for each experimental group.

HT-29 cells [4] = test: Cell cycle analysis by flow cytometer (PI staining), HT-29 cells; type: cell-based
Experimental: as §5

[5] = test system: mouse bearing inflammatory bowel disease (IBD), AOM/DSS induced; test: Mouse model bearing IBD (AOM/DSS induced), body weight and H&E staining of intestine; type: in vivo, C57/BL6 mice
Experimental: The animal experiments were approved by the National Dong-Hwa University Animal Ethics Committee and the experimental protocols were used according to the “Guide for the Care and Use of Laboratory Animals” of National Dong-Hwa University. On day 0, C57/BL6 mice (6-8 weeks old) were weighted and injected (intraperitoneal; i.p.) with 10 mg/kg body weight of azoxymethane (AOM) and then fed with 2% Dextran sodium sulfate solution (DSS solution) via water every day for 7 days. On day 8, the 2% DSS solution was changed to normal water for another 7 days. The cycle of DSS solution and water was repeated and the induction procedure was completed on day 35.
After the establishment of IBD in the experimental mice (on day 35), the mice were injected (i.p.) with 5-FU (15 mg/kg body weight) or HCD (0.64, 1.6, or 6.4 mg/kg body weight) once every three days for additional 30 days. Then, the mice were sacrificed. The colon, spleen, liver, and kidney thereof were immediately removed, observed, and further examined by H&E staining.

## CC1=CCCC2C1(C)CCC(C)C2(C)CCC1=CC(=O)OC1O (stereo not drawn) [HCD, 16-hydroxy-cleroda-3,13-dine-15,16-olide]
Caco2 cells [1]; Caco2, pre-treatment 6-48 hr, then 5-FU 2 μM 24 hr
  effect of pre-treating on efficacy of 5-FU in the subsequent treatment (MTT): significantly enhanced the efficacy of 5-FU
Caco2 cells [1]; Caco2 cells, 48 hr treatment
  IC50: 5 µM
HT-29 cells [2]; HT-29, pre-treatment 6-48 hr, then 5-FU 2 μM 24 hr
  effect of pre-treating on efficacy of 5-FU in the subsequent treatment (MTT): significantly enhanced the efficacy of 5-FU
HT-29 cells [2]; HT-29 cells, 36 hr treatment
  IC50: 5 µM
Caco2 cells [3]; Caco2
  cell cycle arrest at sub-G1 phase vs control (in words): increased cell cycle arrest at sub-G1 phase
Caco2 cells [3]; Caco2, 0.5 μM, 36 hr
  G0/G1 (%): 43.8 ± 3.81%
  G2/M (%): 20.37 ± 4.24%
  S (%): 17.3 ± 0.44%
  Sub G1 (%): 14.4 ± 1.73%
Caco2 cells [3]; Caco2, 0.5 μM, 48 hr
  G0/G1 (%): 44.13 ± 3.26%
  G2/M (%): 21.2 ± 2.46%
  S (%): 15.93 ± 0.9%
  Sub G1 (%): 14.47 ± 5.05%
Caco2 cells [3]; Caco2, 2 μM, 36 hr
  G0/G1 (%): 29.73 ± 4.22 %
  G2/M (%): 23.73 ± 3.91%
  S (%): 13.03 ± 0.5%
  Sub G1 (%): 28.8 ± 4.2 %
Caco2 cells [3]; Caco2, 2 μM, 48 hr
  G0/G1 (%): 25.73 ± 4.63%
  G2/M (%): 22.03 ± 2.11%
  S (%): 11.63 ± 1.08%
  Sub G1 (%): 36.17 ± 7.48 %
Caco2 cells [3]; Caco2, 5 μM, 36 hr
  G0/G1 (%): 19.4 ± 1.82 %
  G2/M (%): 14.77 ± 0.8%
  S (%): 9.9 ± 0.98 %
  Sub G1 (%): 51.77 ± 1.65 %
Caco2 cells [3]; Caco2, 5 μM, 48 hr
  G0/G1 (%): 15.67 ± 6.25 %
  G2/M (%): 12.9 ± 0.87%
  S (%): 9.87 ± 0.55%
  Sub G1 (%): 54.2 ± 0.62 %
Caco2 cells [3]; Caco2, 12 and 24 hr pretreatment of 1 or 2 μM, then 5-FU
  G2/M phase after pre-treatment then 5-FU (in words): decreased
HT-29 cells [4]; HT-29
  cell cycle arrest at sub-G1 phase vs control (in words): increased cell cycle arrest at sub-G1 phase
HT-29 cells [4]; HT-29, 0.5 μM, 24 hr
  G0/G1 (%): 82.9 ± 0.849 %
  G2/M (%): 8.2 ± 0 %
  S (%): 3.3 ± 0.424 %
  Sub G1 (%): 4.35 ± 0.495%
HT-29 cells [4]; HT-29, 0.5 μM, 36 hr
  G0/G1 (%): 59.25 ± 0.54%
  G2/M (%): 14.25 ± 1.01 %
  S (%): 15.85 ± 1.68%
  Sub G1 (%): 7.7 ± 0.81%
HT-29 cells [4]; HT-29, 2 μM, 24 hr
  G0/G1 (%): 33.9 ± 1.414 %
  G2/M (%): 22 ± 1.414%
  S (%): 17.95 ± 0.212%
  Sub G1 (%): 20.7 ± 0.707 %
HT-29 cells [4]; HT-29, 2 μM, 36 hr
  G0/G1 (%): 35.95 ± 1.34 %
  G2/M (%): 9.05 ± 1.485 %
  S (%): 7.8 ± 0.14 %
  Sub G1 (%): 43.95 ± 3.89 %
HT-29 cells [4]; HT-29, 5 μM, 24 hr
  G0/G1 (%): 27.5 ± 4.808%
  G2/M (%): 23.5 ± 2.97%
  S (%): 15.1 ± 2.546%
  Sub G1 (%): 22.95 ± 7.99 %
HT-29 cells [4]; HT-29, 5 μM, 36 hr
  G0/G1 (%): 16.4 ± 4.95 %
  G2/M (%): 11.15 ± 1.20 %
  S (%): 7.5 ± 1.13 %
  Sub G1 (%): 62 ± 6.93 %
HT-29 cells [4]; HT-29, pre-treatment, then 5-FU
  cell cycle phases after pre-treatment then 5-FU (in words): increase of sub G1 phase and decrease of G2/M phase
[5]; 0.64 mg/kg body weight i.p.
  intestine villus arrangement (H&E staining): irregular arrangement of villus
  lymph node (H&E staining): not infiltrated into muscle mucosa layer
[5]; 0.64 mg/kg body weight i.p. once every three days, 30 days
  body weight: initially reduced
[5]; 1.6 mg/kg body weight i.p.
  intestine villus arrangement (H&E staining): arranged in neat rows nearly as seen in the control mice
  lymph node (H&E staining): not infiltrated into muscle mucosa layer
[5]; 6.4 mg/kg body weight i.p.
  intestine villus arrangement (H&E staining): arranged in neat rows nearly as seen in the control mice
  lymph node (H&E staining): not infiltrated into muscle mucosa layer
